Marks after values point to notes of the source that are not given here.
Tests used:
normal ECG in rats = assay: Effect on a normal electrocardiogram in rats; type: in vivo, rat; settings: for HR—heart rate / PQ interval / QRS complex / QTc (Bazzett's formula) / decrease of the heart rate: 5 mg/kg iv; for HR—heart rate / PQ interval / QRS complex / QTc (Bazzett's formula): mean ± SD; for PQ interval / QRS complex / QTc (Bazzett's formula): in ms (unit assumed)
Procedure: The procedure was performed to exclude the negative effects of the tested compounds on the normal ECG, according to the method described earlier. […] Firstly, animals were anesthetized with thiopental (75 mg/kg ip). […] The influence on PQ, QTc interval, QRS complex, and heart rate was evaluated. The Bazzett’s formula: QTc = QT/√RR was used to calculate QTc. All the studied compounds were administered at a dose of 5 mg/kg.

[1] = test system: adrenaline-induced arrhythmia model in rats; assay: Therapeutic antiarrhythmic activity in adrenaline-induced arrhythmia; settings: 1 mg/kg iv immediately after adrenaline 20 µg/kg; number of animals with event
Procedure: The experiments were carried out according to the method described by Szekeres and Papp [71]. The heart rhythm disturbances, such as extrasystoles, conduction blocks, and bradycardia, were induced by iv injection of adrenaline (20 µg/kg) to anesthetized rats (thiopental, 75 mg/kg, ip). […] The Aspel ASCARD apparatus (standard II lead, with a tape of speed 50 mm/s and voltage calibration of 1 mV = 1 cm) was used for the ECG measurements. The ECG was recorded during the first 2 min and in the 5th, 10th, and 15th min after the adrenaline injection (Figure 3B). The lack or decreased amount of extrasystoles, atrioventricular blocks, and bradycardia in the ECG recordings compared to the control group was the criterion of antiarrhythmic activity [72].
Automated ECG waveform analysis was evaluated as described earlier [55], using Eleven Maze software version 0.1 from Eleven Products Sp. z o.o. […] The software, under expert supervision, recognized and classified the heart rhythm irregularities. It also calculated PQ, QRS, QTc, and rate parameters.

[2] = test system: calcium chloride-induced arrhythmia model in rats; assay: Prophylactic antiarrhythmic activity in calcium chloride-induced arrhythmia; type: in vivo, rat; settings: 5 mg/kg iv 15 min before calcium chloride 140 mg/kg; number of animals with event
[3] = test system: pressor response to methoxamine in rats; assay: Influence on blood vasopressor response to methoxamine in rats; type: in vivo, rat; settings: 2.5 mg/kg iv, methoxamine 150 μg/kg before and 5 min after compound
Outline: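 Anaesthetised (thiopental 75 mg/kg ip) normotensive Wistar rats, carotid artery cannulated. Pressor response to methoxamine (150 µg/kg, iv) recorded before and 5 min after test compound, given at its lowest hypotensive dose, after 15-min stabilisation.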

[4] = test system: adrenaline-induced arrhythmia model in rats; assay: Prophylactic antiarrhythmic activity in adrenaline-induced arrhythmia; type: in vivo, rat; settings: for Blocks / Bradycardia / Extrasystoles / Mortality: number of animals with event
α1-adrenergic receptors = assay: α1-adrenoceptor radioligand binding assay ([3H]-prazosin, rat cortex); settings: rat cortex tissue, mean ± SEM
Outline: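 Rat cerebral cortex membranes in 50 mM Tris-HCl pH 7.6, with 7–8 compound concentrations in duplicate. Nonspecific binding defined by 10 μM phentolamine for [3H]-prazosin (α1) or 10 μM clonidine for [3H]-clonidine (α2). Filtration and scintillation counting; Ki calculated.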

normotensive rats = assay: Influence on blood pressure in the normotensive rats; type: in vivo, rat; settings: for DBP—diastolic blood pressure / SBP—systolic blood pressure: mean ± SD
Procedure: The experiment was performed according to the method described earlier. Normotensive Wistar rats were anesthetized with thiopental (75 mg/kg ip). The right carotid artery was cannulated with a polyethylene tube filled with heparin solution, using a Datamax apparatus (Columbus Instruments, Columbus, OH, USA). After 15 min of the stabilization period, the studied compounds were administered iv, and their effect on systolic and diastolic blood pressure was evaluated (Figure 4A).

[5] = 0 min (prior to administration)
[6] = 0.1 mg/kg iv 15 min before adrenaline 20 μg/kg
[7] = 0.25 mg/kg iv 15 min before adrenaline 20 μg/kg
[8] = 0.5 mg/kg iv 15 min before adrenaline 20 μg/kg
[9] = 1.0 mg/kg iv, 0 min (before administration)
[10] = 2.5 mg/kg iv, 0 min (before administration)

## COc1ccccc1N1CCN(Cc2cccc(COc3ccccc3C(N)=O)c2)CC1.Cl [JJGW11, 2-[(3-{[4-(2-metoxyphenyl)piperazin-1-ylo]methyl}phenyl)metoxy}benzamide hydrochloride]
Normal ECG in rats; 5 mg/kg iv vs ED50
  dose affecting the heart rate relative to the ED50 value in the adrenaline-induced arrhythmia model: 26 fold
Normal ECG in rats; [5]
  HR—heart rate: 281.3 ± 50.8
  PQ interval: 45.8 ± 7.2
  QRS complex: 38.5 ± 3.6
  QTc (Bazzett's formula): 188.2 ± 12.3
Normal ECG in rats; 10th min after the injection
  decrease of the heart rate: 8%
Normal ECG in rats; 15th min after the injection
  decrease of the heart rate: 10%
Normal ECG in rats; 5 min
  HR—heart rate: 266.5 ± 58.2
  PQ interval: 47.1 ± 5.7
  QRS complex: 41.3 ± 3.0
  QTc (Bazzett's formula): 197.3 ± 18.6
Normal ECG in rats; 10 min
  HR—heart rate: 258.8 ± 55.0
  PQ interval: 47.4 ± 5.0
  QRS complex: 42.4 ± 4.3
  QTc (Bazzett's formula): 193.6 ± 22.0
Normal ECG in rats; 15 min
  HR—heart rate: 252.4 ± 50.3
  PQ interval: 47.6 ± 5.1
  QRS complex: 41.7 ± 5.4
  QTc (Bazzett's formula): 184.1 ± 16.9
[1]
  Blocks: 2/5
  Bradycardia: 1/5
  Mortality: 0/5
[2]
  Blocks: 6/6
  Bradycardia: 6/6
  Extrasystoles: 5/6
  Fibrillations: 6/6
  Mortality: 6/6
[3]
  attenuation of the methoxamine pressor response: 99%
[4]; [6]
  Blocks: 4/5
  Bradycardia: 2/5
  Extrasystoles: 4/5
  Mortality: 1/5
[4]; [7]
  Blocks: 6/6
  Bradycardia: 0/6
  Extrasystoles: 6/6
  Mortality: 0/6
[4]; [8]
  Blocks: 1/6
  Bradycardia: 2/6
  Extrasystoles: 3/6
  Mortality: 1/6
[4]; prophylactic, iv 15 min before adrenaline 20 μg/kg, confidence limits in brackets (Litchfield and Wilcoxon)
  ED50: 0.19 (0.08–0.45) mg/kg
α1-adrenergic receptors
  Adrenergic Receptors—pKi α1: 8.07 ± 0.04
Normotensive rats; [9]
  DBP—diastolic blood pressure: 86.8 ± 7.6 mmHg
  SBP—systolic blood pressure: 118.2 ± 9.7 mmHg
Normotensive rats; 1.0 mg/kg iv, 5 min
  DBP—diastolic blood pressure: 81.3 ± 14.4 mmHg
  SBP—systolic blood pressure: 116.2 ± 8.5 mmHg
Normotensive rats; 1.0 mg/kg iv, 10 min
  DBP—diastolic blood pressure: 82.0 ± 10.2 mmHg
  SBP—systolic blood pressure: 113.8 ± 9.2 mmHg
Normotensive rats; 1.0 mg/kg iv, 20 min
  DBP—diastolic blood pressure: 82.3 ± 8.8 mmHg
  SBP—systolic blood pressure: 111.5 ± 10.4 mmHg
Normotensive rats; 1.0 mg/kg iv, 30 min
  DBP—diastolic blood pressure: 83.0 ± 8.2 mmHg
  SBP—systolic blood pressure: 111.0 ± 10.8 mmHg
Normotensive rats; 1.0 mg/kg iv, 40 min
  DBP—diastolic blood pressure: 82.5 ± 8.4 mmHg
  SBP—systolic blood pressure: 110.0 ± 11.5 mmHg
Normotensive rats; 1.0 mg/kg iv, 50 min
  DBP—diastolic blood pressure: 81.7 ± 8.3 mmHg
  SBP—systolic blood pressure: 110.3 ± 10.7 mmHg
Normotensive rats; 1.0 mg/kg iv, 60 min
  DBP—diastolic blood pressure: 81.5 ± 8.4 mmHg
  SBP—systolic blood pressure: 110.8 ± 10.6 mmHg
Normotensive rats; [10]
  DBP—diastolic blood pressure: 88.7 ± 10.4 mmHg
  SBP—systolic blood pressure: 116.7 ± 8.1 mmHg
Normotensive rats; 2.5 mg/kg iv, 60th min after administration
  decrease of the diastolic blood pressure: 18%
Normotensive rats; 2.5 mg/kg iv, 5 min
  DBP—diastolic blood pressure: 84.7 ± 10.0 mmHg
  SBP—systolic blood pressure: 108.5 ± 8.7 ^b mmHg
Normotensive rats; 2.5 mg/kg iv, 10 min
  DBP—diastolic blood pressure: 81.2 ± 8.6 mmHg
  SBP—systolic blood pressure: 103.3 ± 9.5^c mmHg
Normotensive rats; 2.5 mg/kg iv, 20 min
  DBP—diastolic blood pressure: 78.5 ± 10.1 mmHg
  SBP—systolic blood pressure: 102.3 ± 10.0 ^c mmHg
Normotensive rats; 2.5 mg/kg iv, 30 min
  DBP—diastolic blood pressure: 77.3 ± 9.9 mmHg
  SBP—systolic blood pressure: 101.3 ± 9.2 ^b mmHg
Normotensive rats; 2.5 mg/kg iv, 40 min
  DBP—diastolic blood pressure: 79.2 ± 10.5 mmHg
  SBP—systolic blood pressure: 103.0 ± 10.3 ^a mmHg
Normotensive rats; 2.5 mg/kg iv, 50 min
  DBP—diastolic blood pressure: 77.7 ± 12.9 mmHg
  SBP—systolic blood pressure: 103.5 ± 12.9 ^b mmHg
Normotensive rats; 2.5 mg/kg iv, 60 min
  DBP—diastolic blood pressure: 73.0 ± 16.2 ^a mmHg
  SBP—systolic blood pressure: 100.2 ± 15.9 ^b mmHg
Normotensive rats; 2.5 mg/kg iv, between the 5th and 60th min after injection
  decrease of the systolic blood pressure: 7–14%
